According to US8883415B2, “Aza-benzazolium containing cyanine dyes” (Life Technologies Corporation, priority 1999, dated 2014):

Tested on: double-stranded DNA
Assay: Detecting double-stranded DNA in solution (fluorescence microplate reader)
Assay type: binding
Method: Samples containing 0.1 ng/mL to 1 microgram/mL double-stranded DNA are prepared in 10 mM Tris-HCl, 1 mM EDTA, pH 7.5. The selected dye of the invention is dissolved in DMSO at a concentration of 1-10 mM and then diluted into the same buffer at a concentration sufficient to achieve final optical densities of 0.1 and 0.01 at 500 nm, 530 nm, 540 nm or 560 nm. Equal volumes (100 microliters each) of DNA sample solution and dye solution at each concentration are combined and mixed gently at room temperature in a microplate well.
Samples are allowed to equilibrate for 5-60 minutes, protected from light, and the fluorescence of the sample is measured using a fluorescence microplate reader. DNA concentration is determined by comparison of the sample fluorescence with a standard curve obtained with that dye for each dye concentration. The sensitivity limit of several dyes in this assay is shown (Table 5).

[1] = Excitation 540 nm/Emission 570 nm
[2] = Excitation 560 nm/Emission 585 nm
[3] = Excitation 500 nm/Emission 560 nm

| Structure (SMILES) | Sensitivity Limit, High dye concentration (0.1 OD) [2] [ng/mL] | Sensitivity Limit, Low dye concentration (0.01 OD) [2] [ng/mL] | Sensitivity Limit, High dye concentration (0.1 OD) [3] [ng/mL] | Sensitivity Limit, Low dye concentration (0.01 OD) [3] [ng/mL] | also measured |
| --- | --- | --- | --- | --- | --- |
| CN1C=C/C(=C\c2sc3ncccc3[n+]2C)c2ccccc21.[I-] [Compound 33] |  |  |  |  | Sensitivity Limit, High dye concentration (0.1 OD) [1]: 100 ng/mL; Sensitivity Limit, Low dye concentration (0.01 OD) [1]: >10 ng/mL |
| CN1C=C/C(=C\c2nc3c(cc(Cl)c[n+]3C)s2)c2ccccc21.[I-] [Compound 34] |  |  |  |  | Sensitivity Limit, High dye concentration (0.1 OD) [1]: <10 ng/mL; Sensitivity Limit, Low dye concentration (0.01 OD) [1]: 0.2 ng/mL |
| CN1C=C/C(=C\c2nc3c(cc(Cl)c[n+]3C)s2)c2ccccc21.[I-] [Compound 35] |  |  |  |  | Sensitivity Limit, High dye concentration (0.1 OD) [1]: 10 ng/mL; Sensitivity Limit, Low dye concentration (0.01 OD) [1]: 0.5 ng/mL |
| CN1C=C/C(=C\c2nc3c(cc(Cl)c[n+]3C)s2)c2ccccc21.[I-] [Compound 37] | 10 | 2.0 |  |  |  |
| CN1C=C/C(=C\c2nc3c(cc(Cl)c[n+]3C)s2)c2ccccc21.[I-] [Compound 38] | 200 | 5.0 |  |  |  |
| CN1C=C/C(=C\c2nc3c(cc(Cl)c[n+]3C)s2)c2ccccc21.[I-] [Compound 39] | 10 | 5.0 |  |  |  |
| CN1C=C/C(=C\c2nc3c(cc(Cl)c[n+]3C)s2)c2ccccc21.[I-] [Compound 40] | 10 | 1.0 |  |  |  |
| CN1C(Cl)=C/C(=C\c2nc3c(cc(Cl)c[n+]3C)s2)c2ccccc21.[Cl-] [Compound 41] | 10 | >10 |  |  |  |
| CN1C=C/C(=C\c2nc3c(ccc[n+]3C)o2)c2ccccc21.Cc1ccc(S(=O)(=O)[O-])cc1 [Compound 48] |  |  | 10 | >10 |  |
| CN1C=CC(Cc2sc3c(F)nc(F)c(F)c3[n+]2C)c2ccccc21.[I-] (stereo not drawn) [Compound 49] |  |  | 20 | >10 |  |
| CC1/C(=C/c2nc3c(ccc[n+]3C)o2)C=Cc2ccccc21.Cc1ccc(S(=O)(=O)[O-])cc1 (stereo not drawn) [Compound 53] |  |  | 10 | >10 |  |
| COC1=C/C(=C\c2nc3c(ccc[n+]3C)o2)c2ccccc2N1C [Compound 54] |  |  | 10 | 1.0 |  |
